Experiments:
[1] = target: T1, purified human autoBACE-2 (Homo sapiens, UniProt Q9Y5Z0); assay: BACE-2 Assay (BACE-HTRF assay); type: biochemical; conditions: Ki calculated from IC50 using the Cheng-Prusoff equation; QSY7-EISEVNLDAEFC-Eu-amide substrate 200 nM, pH 5.0; read-out: BACE2 Ki
T1 sequence (Q9Y5Z0 63-473 limits assumed): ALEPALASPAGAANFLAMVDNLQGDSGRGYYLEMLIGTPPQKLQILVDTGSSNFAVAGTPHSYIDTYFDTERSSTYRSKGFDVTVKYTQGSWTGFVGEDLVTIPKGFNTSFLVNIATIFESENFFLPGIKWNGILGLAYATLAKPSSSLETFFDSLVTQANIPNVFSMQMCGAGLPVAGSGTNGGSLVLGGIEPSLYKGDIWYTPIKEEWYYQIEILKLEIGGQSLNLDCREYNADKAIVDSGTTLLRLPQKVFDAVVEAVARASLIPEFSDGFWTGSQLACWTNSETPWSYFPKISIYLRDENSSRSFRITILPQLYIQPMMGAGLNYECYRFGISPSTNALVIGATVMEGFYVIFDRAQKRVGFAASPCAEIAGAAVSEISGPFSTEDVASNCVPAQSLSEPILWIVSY
Description: Inhibitor ICsos at purified human autoBACE-2 are determined in a time-resolved endpoint proteolysis assay that measures hydrolysis of the QSY7-EISEVNLDAEFC-Eu-amide FRET peptide substrate (BACE-HTRF assay). BACE-mediated hydrolysis of this peptide results in an increase in relative fluorescence (RFU) at 620 nm after excitation with 320 nm light. Inhibitor compounds, prepared at 3× the desired final concentration in 1×BACE assay buffer (20 mM sodium acetate pH 5.0, 10% glycerol, 0.1% Brij-35) supplemented with 7.5% DMSO are preincubated with an equal volume of autoBACE-2 enzyme diluted in 1×BACE assay buffer (final enzyme concentration 1 nM) in black 384-well NUNC plates for 30 minutes at 30° C. The assay is initiated by addition of an equal volume of the QSY7-EISEVNLDAEFC-Eu-amide substrate (200 nM final concentration, […]) prepared in 1×BACE assay buffer supplemented with 7.5% DMSO and incubated for 90 minutes at 30° C. DMSO is present at 5% final concentration in the assay. Following laser excitation of sample wells at 320 nm, the fluorescence signal at 620 nm is collected for 400 ms following a 50 μs delay on a RUBYstar HTRF plate reader (BMG Labtechnologies). Raw RFU data is normalized to maximum (1.0 nM BACE/DMSO) and minimum (no enzyme/DMSO) RFU values. IC50s are determined by nonlinear regression analysis (sigmoidal dose response, variable slope) of percent inhibition data with minimum and maximum values set to 0 and 100 percent respectively. Similar IC50s are obtained when using raw RFU data. The Ki values are calculated from the IC50 using the Cheng-Prusoff equation.

[2] = target: soluble human BACE1 catalytic domain (Homo sapiens, UniProt P56817); assay: BACE1 HTRF FRET Assay; type: biochemical; conditions: Ki calculated from IC50 using the Cheng-Prusoff equation; QSY7-APPswe-Eu substrate 200 nM, pH 5.0
Sequence of soluble human BACE1 catalytic domain (P56817 75-416 limits assumed): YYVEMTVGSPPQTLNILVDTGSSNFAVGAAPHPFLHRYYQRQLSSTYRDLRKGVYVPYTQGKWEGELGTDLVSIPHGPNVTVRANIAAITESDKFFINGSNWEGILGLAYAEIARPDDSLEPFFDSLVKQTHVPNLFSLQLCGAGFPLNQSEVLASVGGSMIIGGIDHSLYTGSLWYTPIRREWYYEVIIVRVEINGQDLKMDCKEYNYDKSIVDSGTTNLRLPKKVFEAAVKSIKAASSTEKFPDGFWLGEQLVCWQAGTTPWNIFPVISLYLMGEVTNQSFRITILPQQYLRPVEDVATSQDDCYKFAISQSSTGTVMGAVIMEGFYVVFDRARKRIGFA
Excerpt: Na^+-Acetate pH 5.0; 1% Brij-35; Glycerol; Dimethyl Sulfoxide (DMSO); Recombinant human soluble BACE1 catalytic domain (>95% pure); APP Swedish mutant peptide substrate (QSY7-APP^swe-Eu): QSY7-EISEVNLDAEFC-Europium-amide.
A homogeneous time-resolved FRET assay can be used to determine IC50 values for inhibitors of the soluble human BACE1 catalytic domain. This assay monitors the increase of 620 nm fluorescence that resulted from BACE1 cleavage of an APPswedish APP^swe mutant peptide FRET substrate (QSY7-EISEVNLDAEFC-Europium-amide). This substrate contains an N-terminal QSY7 moiety that serves as a quencher of the C-terminal Europium fluorophore (620 nm Em). In the absence of enzyme activity, 620 nm fluorescence is low in the assay and increased linearly over 3 hours in the presence of uninhibited BACE1 enzyme. Inhibition of BACE1 cleavage of the QSY7-APP^swe-Eu substrate by inhibitors is manifested as a suppression of 620 nm fluorescence.
Varying concentrations of inhibitors at 3× the final desired concentration in a volume of 10 ul are preincubated with purified human BACE1 catalytic domain (3 nM in 10 μl) for 30 minutes at 30° C. in reaction buffer containing 20 mM Na-Acetate pH 5.0, 10% glycerol, 0.1% Brij-35 and 7.5% DSMO. Reactions are initiated by addition of 10 μl of 600 nM QSY7-APP^swe-Eu substrate (200 nM final) to give a final reaction volume of 30 μl in a 384 well Nunc HTRF plate. The reactions are incubated at 30° C. for 1.5 hours. The 620 nm fluorescence is then read on a Rubystar HTRF plate reader (BMG Labtechnologies) using a 50 millisecond delay followed by a 400 millisecond acquisition time window. Inhibitor IC50 values are derived from non-linear regression analysis of concentration response curves. Ki values are then calculated from IC50 values using the Cheng-Prusoff equation using a previously determined […] for the QSY7-APP^swe-Eu substrate at BACE1.

SMILES | Ki [1] | Ki [2]
CC1(C)C(=N)N[C@@]2(COCc3ccc(NC(=O)c4ccc(F)cn4)cc32)CS1(=O)=O [Example E-13] | 17 nM | 127 nM
CC1(C)C(=N)N[C@@]2(COCc3ccc(NC(=O)c4ccc(C#N)cn4)cc32)CS1(=O)=O [Example E-14] | 35 nM | 11 nM
CC1(C)C(=N)N[C@@]2(COCc3ccc(NC(=O)c4ncc(Cl)cc4F)cc32)CS1(=O)=O [Example E-15] | 5 nM | 37 nM
CC1(C)C(=N)N[C@@]2(COCc3ccc(NC(=O)c4cnc(OCC(F)(F)F)cn4)cc32)CS1(=O)=O [Example E-16] | 402 nM | 101 nM
CC1(C)C(=N)N[C@@]2(COCc3ccc(NC(=O)c4cnc(OCCF)cn4)cc32)CS1(=O)=O [Example E-17] | 443 nM | 326 nM
CC1(C)C(=N)N[C@@]2(COCc3ccc(NC(=O)c4ccc(OC(F)F)cn4)cc32)CS1(=O)=O [Example E-18] | 76 nM | 34 nM
C#CCOc1ccc(C(=O)Nc2ccc3c(c2)[C@]2(COC3)CS(=O)(=O)C(C)(C)C(=N)N2)nc1 [Example E-19] | 185 nM | 30 nM
COc1cnc(C(=O)Nc2ccc3c(c2)[C@]2(COC3)CS(=O)(=O)C(C)(C)C(=N)N2)c(C)n1 [Example E-20] | 60 nM | 218 nM
CC1(C)C(=N)N[C@@]2(COCc3ccc(NC(=O)c4cnc(C(F)(F)F)cn4)cc32)CS1(=O)=O [Example E-21] | 583 nM | 231 nM
COc1cnc(C(=O)Nc2ccc3c(c2)[C@]2(COC3)CS(=O)(=O)C(C)(C)C(=N)N2)cn1 [Example E-22] | 187 nM | 334 nM
Cc1nc(C(=O)Nc2ccc3c(c2)[C@]2(COC3)CS(=O)(=O)C(C)(C)C(=N)N2)co1 [Example E-23] | 7 nM | 66 nM
CC1(C)C(=N)N[C@@]2(COCc3ccc(NC(=O)c4ccc(OCF)cn4)cc32)CS1(=O)=O [Example E-24] | 13 nM | 57 nM
CC1(C)C(=N)N[C@@]2(CCCc3ccc(NC(=O)c4ccc(Cl)cn4)cc32)CS1(=O)=O [Example F-1] | 3 nM | 11 nM
CC1(C)C(=N)N[C@@]2(CCCc3ccc(NC(=O)c4ncc(Cl)cc4F)cc32)CS1(=O)=O [Example G-1] | 2 nM | 11 nM
CC1(C)C(=N)N[C@@]2(CCCc3ccc(NC(=O)c4cnsn4)cc32)CS1(=O)=O [Example G-2] | 7 nM | 35 nM
CC1(C)C(=N)N[C@@]2(CCCc3ccc(NC(=O)c4cc5ccccn5n4)cc32)CS1(=O)=O [Example G-3] | 74 nM | 503 nM
CC1(C)C(=N)N[C@@]2(CCCc3ccc(NC(=O)c4ccn(C(F)F)n4)cc32)CS1(=O)=O [Example G-4] | 1 nM | 4 nM
C#CCOc1cnc(C(=O)Nc2ccc3c(c2)[C@]2(CCC3)CS(=O)(=O)C(C)(C)C(=N)N2)cn1 [Example G-5] | 20 nM | 7 nM
Cn1cc(Cl)c(C(=O)Nc2ccc3c(c2)[C@]2(CCC3)CS(=O)(=O)C(C)(C)C(=N)N2)n1 [Example G-6] | 1 nM | 17 nM
C#CCOc1ccc(C(=O)Nc2ccc3c(c2)[C@]2(CCC3)CS(=O)(=O)C(C)(C)C(=N)N2)nc1 [Example G-7] | 51 nM | 10 nM
COc1cnc(C(=O)Nc2ccc3c(c2)[C@]2(CCC3)CS(=O)(=O)C(C)(C)C(=N)N2)c(C)c1 [Example G-8] | 2 nM | 19 nM
COc1cnc(C(=O)Nc2ccc3c(c2)[C@]2(CCC3)CS(=O)(=O)C(C)(C)C(=N)N2)c(C)n1 [Example G-9] | 17 nM | 64 nM
Cc1cc(C#N)cnc1C(=O)Nc1ccc2c(c1)[C@]1(CCC2)CS(=O)(=O)C(C)(C)C(=N)N1 [Example G-10] | 3 nM | 2 nM
COc1cnc(C(=O)Nc2ccc3c(c2)[C@]2(CCC3)CS(=O)(=O)C(C)(C)C(=N)N2)cn1 [Example G-11] | 57 nM | 92 nM
